Source: patent US7312248B2, “Control of parasites in animals by the use of novel trifluoromethanesulfonanilide oxime ether derivatives” (Schering-Plough Animal Health Corporation, priority 2004, dated 2007)
Like-named read-outs stand apart in the source and are kept apart here.

What was measured:
Assay type in all cases: in vivo
Haemonchus contortus = Haemonchus contortus larvacidal (larval development) assay; conditions: 144 h, read-out: Haemonchus contortus LD99
Protocol: a) Haemonchus Contortus Larvacidal Assay:
The effect of compounds on larval development was determined in the assay described by Gill et al. (1995, International Journal of Parasitology 25:463-470). Briefly, in this assay, nematode eggs were applied to the surface of an agar matrix containing the test compound and then allowed to develop through to the L3, infective stage (6 days). The wells for each dilution of every compound (from highest to lowest concentration) were inspected to determine the well number corresponding to the lowest concentration at which development was inhibited in 99% of the nematode larvae present (LD99). Because well numbers correspond to a two-fold serial dilution of each compound, a titre (dilution factor) is generated as 2^n−1, where n is the well number. By dividing the highest concentration tested by the titre an LD99 value can be obtained, representing the concentration required to inhibit development in 99% of the nematode larvae present. The compounds supplied as solid and viscous liquids were dissolved in DMSO. Twelve serial one-half dilutions in DMSO solution were prepared from the stock solution, each of which was then diluted ⅕ with water. Aliquots (10 μl) of each dilution were transferred to the bioassay plates to give a final concentration range of 0.024 to 50 μg/ml.

[1] = system: cat flea (Ctenocephalides felis); assay: Ctenocephalides felis adulticide assay: dose response (LC50)
Source text: c) Ctenocephalides felis Adulticide Assay: C. felis Dose Response
The purpose of this example was to determine the LC50 when cat fleas were contacted with a glass surface treated with sample compounds or formulations prepared as described above. Mortality of fleas was defined as follows: fleas were considered dead if they didn't move or were on their sides and unable to walk or right themselves. LC50: Lethal Concentration 50—concentration of glass surface treatment at which 50% of the cat fleas were killed. The test species was the cat flea (Ctenocephalides felis). The strain used was obtained from external suppliers as pupae and held in the laboratory under testing conditions until the adults had emerged. Fifteen (15) fleas were used in a minimum of four replicates for each dose level (total of 60 fleas per dose level). The insects were selected to be in the adult life stage, aged between 3 and 7 days post emergence.
The compounds to be tested were dissolved in acetone just prior to testing. Samples of compounds were stored in a refrigerator (5±1° C.) unless otherwise specified. During the mortality testing, the temperature was maintained at 25+1° C. Humidity was maintained at 75±5%. The base (area=159 mm^2) of a 100 mL glass Erlenmeyer (conical) flask provided the treatment surface. Flasks were pretreated with Coatasil™ glass treatment to maximise bio-availability of test compounds by preventing them from binding to the glass surface.
Six dose levels (concentrations) of test sample, in the form of a serial dilution, were derived from a pilot study and covered a range that produced very low to very high mortality. The base of the 100 mL Erlenmeyer flask was treated with 0.5 mL of test sample in acetone and gently swirled. This volume was sufficient to cover the base of the flask. Flasks were left to dry for 24 hours before flea exposure. Adult cat fleas were lightly anaesthetised by cooling and then placed into a sorting chamber, which allowed fleas to revive and jump into the Erlenmeyer flasks. Fifteen (15)adult cat fleas were collected in each flask. The top of the flasks were then covered in Parafilm™ and small holes made to allow gas exchange. A 0.5 mL volume of acetone was applied to the base of an Erlenmeyer flask and the testing proceeded in the same manner described above. Cat fleas in the treatment containers were held under testing conditions for 24 hours. Mortality resulting from the treatments was recorded at 8 and 24 hours.

[2] = system: cat flea (Ctenocephalides felis); assay: whole plant or invertebrate; conditions: Ctenocephalides felis
How it was run: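 Single-dose screen at 1.26 μg/cm^2: acetone solution dried for 24 h on a Coatasil-treated 159 mm^2 flask base, then 15 adult cat fleas aged 3-7 days per flask, four or more replicates, acetone control. Percent dead, meaning not moving or unable to right themselves, recorded after 8, 24 and/or 48 h at 25 °C and 75% RH.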

[3] = 24 h, read-out: C. felis Mortality (%) 24 h, 24 h, Laboratory 1 A data
[4] = 8 h, read-out: C. felis Mortality (%) 8 h, 8 h, Laboratory 1 A data
[5] = lowest concentration inhibiting development in 99% of larvae, eggs to L3, 6 days, range 0.024 to 50 μg/ml
[6] = 24 h, read-out: Ctenocephalides felis Mortality (%) 24 h
[7] = 8 h, read-out: Ctenocephalides felis Mortality (%) 8 h

Compound	IC99 (Haemonchus contortus)	mortality at 1.26 µg/cm2, 1.26 µg/cm2 [2, 3]	C. felis LC50 ([1]; Laboratory 1 C data)	mortality at 1.26 µg/cm2, 1.26 µg/cm2 [2, 4]	further results
CC/C(=N\Oc1ccc(Cl)c(Cl)c1)c1cc(Cl)ccc1NS(=O)(=O)C(F)(F)F [Compound 139]	0.9 µg/mL	64%			C. felis LC50 ([1]; Laboratory 2 D data): 0.3^D μg/cm^2
C/C(=N\OC(C)c1ccc(Cl)cc1)c1cc(Cl)ccc1NS(=O)(=O)C(F)(F)F (stereo not shown) [Compound 123]	0.9 µg/mL		1.2 μg/cm^2	11%	C. felis LC50 ([1]; Laboratory 2 D data): 0.3 μg/cm^2
O=S(=O)(Nc1ccc(Cl)cc1/C(=N/OCc1ccc(C(F)(F)F)cc1)c1ccccc1)C(F)(F)F [Compound 24]	2.5 µg/mL	43%			C. felis LC50 ([1]; Laboratory 2 D data): 0.8^D μg/cm^2
C/C(=N\Oc1ccc(Cl)cc1)c1cc(Cl)ccc1NS(=O)(=O)C(F)(F)F [Compound 127]	0.4 µg/mL	90%	0.3 μg/cm^2		
CCC/C(=N\OCc1ccc(Cl)cc1Cl)c1cc(Cl)ccc1NS(=O)(=O)C(F)(F)F [Compound 100, N-{4-chloro-2-[1-(2,4-dichlorobenzyloxyimino)butyl]}trifluoromethanesulfonamide]	1.8 µg/mL	88%	0.4 μg/cm^2	58%	
CC/C(=N\OCCOc1ccccc1)c1cc(Cl)ccc1NS(=O)(=O)C(F)(F)F [Compound 106]	11 µg/mL	48%	1.0 μg/cm^2		
CC/C(=N\OC(CC)CC)c1cc(Cl)ccc1NS(=O)(=O)C(F)(F)F [Compound 171]		100%	0.4 μg/cm^2		
C=CCO/N=C(\C)c1cc(Cl)ccc1NS(=O)(=O)C(F)(F)F [Compound 181]		100%	0.1 μg/cm^2		
CC/C(=N\OCC(C)C)c1cc(Cl)ccc1NS(=O)(=O)C(F)(F)F [Compound 159]		100%	0.2 μg/cm^2		
C/C(=N\Oc1cccc(C(F)(F)F)c1)c1cc(Cl)ccc1NS(=O)(=O)C(F)(F)F [Compound 134, N-{4-chloro-2-[1-(3-trifluoromethylphenoxyimino)ethyl]phenyl}trifluoromethanesulfonamide]	0.4 µg/mL	96%	0.4 μg/cm^2		
C/C(=N\OC(C)C)c1cc(Cl)ccc1NS(=O)(=O)C(F)(F)F [Compound 158]		100%	0.2 μg/cm^2		
CC/C(=N\OCc1ccc(C#N)cc1)c1cc(Cl)ccc1NS(=O)(=O)C(F)(F)F [Compound 91]	13 µg/mL	67%			
C/C(=N\Oc1ccccc1)c1cc(Cl)ccc1NS(=O)(=O)C(F)(F)F [Compound 125]	5.5 µg/mL			6%	
O=S(=O)(Nc1ccc(Cl)cc1/C(=N/OCc1ccc(Cl)c(Cl)c1)c1ccccc1)C(F)(F)F [Compound 87, N-{4-chloro-2-[(3,4-dichlorobenzyloxyimino)phenylmethyl]phenyl}trifluoromethanesulfonamide]	1.3 µg/mL			5%	
CCC/C(=N\OCc1ccc(C(F)(F)F)cc1C(F)(F)F)c1cc(Cl)ccc1NS(=O)(=O)C(F)(F)F [Compound 98]	1.4 µg/mL			79%	
C/C(=N\OC1CCCCC1)c1cc(Cl)ccc1NS(=O)(=O)C(F)(F)F [Compound 161]		100%	0.2 μg/cm^2		
O=S(=O)(Nc1ccc(Cl)cc1-c1cc(-c2ccc(F)cc2F)on1)C(F)(F)F [Compound 231, N-{4-chloro-2-[5-(2,4-difluorophenyl)isoxazol-3-yl]phenyl}trifluoromethanesulfonamide]					IC99 (Haemonchus contortus; [5]): 0.6 µg/mL; mortality at 1.26 µg/cm2 [2, 6]: 7%

Compound	IC99 (Haemonchus contortus)	mortality at 1.26 µg/cm2, 1.26 µg/cm2 [2, 3]	C. felis LC50 ([1]; Laboratory 1 C data)	mortality at 1.26 µg/cm2, 1.26 µg/cm2 [2, 4]	further results
O=S(=O)(Nc1ccc(Cl)cc1-c1cc(-c2ccc(F)cc2)on1)C(F)(F)F [Compound 228]					IC99 (Haemonchus contortus; [5]): 0.4 µg/mL; mortality at 1.26 µg/cm2 [2, 7]: 3%; mortality at 1.26 µg/cm2 [2, 6]: 3%
O=S(=O)(Nc1ccc(Cl)cc1/C(=N/OCc1ccc(Cl)cc1Cl)c1ccccc1)C(F)(F)F [Compound 61]	1.7 µg/mL			17%	
C/C(=N\OCC(C)C)c1cc(Cl)ccc1NS(=O)(=O)C(F)(F)F [Compound 172]		100%	0.06 μg/cm^2		
C/C(=N\OCC=C(Cl)Cl)c1cc(Cl)ccc1NS(=O)(=O)C(F)(F)F [Compound 38]	0.9 µg/mL			8%	
O=S(=O)(Nc1ccc(Cl)cc1-c1cc(-c2ccc(Cl)cc2Cl)on1)C(F)(F)F [Compound 229, N-{4-chloro-2-[5-(2,4-dichlorophenyl)isoxazol-3-yl]phenyl}trifluoromethanesulfonamide]					IC99 (Haemonchus contortus; [5]): 0.09 µg/mL; mortality at 1.26 µg/cm2 [2, 7]: 2%; mortality at 1.26 µg/cm2 [2, 6]: 7%
C/C(=N\OCc1ccc(C(F)(F)F)cc1)c1cc(Cl)ccc1NS(=O)(=O)C(F)(F)F [Compound 14]	0.9 µg/mL			2%	
CC(C)/C(=N\OCc1ccc(C(F)(F)F)cc1C(F)(F)F)c1cc(Cl)ccc1NS(=O)(=O)C(F)(F)F [Compound 116, N-{2-[1-(2,4-bistrifluoromethylbenzyloxyimino)-2-methylpropyl]-4-chlorophenyl}trifluoromethanesulfonamide]	0.9 µg/mL			10%	
CCC/C(=N\OCc1ccc(C(F)(F)F)cc1)c1cc(Cl)ccc1NS(=O)(=O)C(F)(F)F [Compound 92]	1.6 µg/mL			36%	
C/C(=N\OC1CCCC1)c1cc(Cl)ccc1NS(=O)(=O)C(F)(F)F [Compound 163, N-[4-chloro-2-(1-cyclopentyloxyiminoethyl)phenyl]trifluoromethanesulfonamide]		100%	0.1 μg/cm^2		
CC/C(=N\OCc1cc(Br)cc(Br)c1)c1cc(Cl)ccc1NS(=O)(=O)C(F)(F)F [Compound 109]	2.8 µg/mL			3%	
CC/C(=N\OC1C=CCCC1)c1cc(Cl)ccc1NS(=O)(=O)C(F)(F)F (stereo not shown) [Compound 170]		97%	0.2 μg/cm^2		
CC/C(=N\OCc1ccc(F)cc1F)c1cc(Cl)ccc1NS(=O)(=O)C(F)(F)F [Compound 84]	3.3 µg/mL			95%	
CCC/C(=N\OCC1CCCCC1)c1cc(Cl)ccc1NS(=O)(=O)C(F)(F)F [Compound 111]	5 µg/mL				mortality at 1.26 µg/cm2, 1.26 µg/cm2 ([2]; 8 h, read-out: C. felis Mortality (%) 8 h, 8 h, Laboratory 2 B data): 9%; mortality at 1.26 µg/cm2, 1.26 µg/cm2 ([2]; 24 h, read-out: C. felis Mortality (%) 24 h, 24 h, Laboratory 2 B data): 70%
C/C(=N\Oc1ccc(Br)cc1)c1cc(Cl)ccc1NS(=O)(=O)C(F)(F)F [Compound 137]	0.4 µg/mL	91%			
C/C(=N\OCc1cc(C(F)(F)F)ccc1C(F)(F)F)c1cc(Cl)ccc1NS(=O)(=O)C(F)(F)F [Compound 120, N-{2-[1-(2,5-bistrifluoromethylbenzyloxyimino)ethyl]-4-chlorophenyl}trifluoromethanesulfonamide]	0.5 µg/mL			2%	
O=S(=O)(Nc1ccc(Cl)cc1-c1cc(-c2ccc(Cl)c(Cl)c2)on1)C(F)(F)F [Compound 230]					IC99 (Haemonchus contortus; [5]): 0.4 µg/mL; mortality at 1.26 µg/cm2 [2, 7]: 8%; mortality at 1.26 µg/cm2 [2, 6]: 15%
